Structures can show the parent of a compound that is named as a salt.
Tests used:
[1] = Solubility (37° C.) in 0.1N HCl, pH 4.5, pH 6.8; type: physicochemical; set-up: Solubility (37° C.): unit not given here; details: hydrobromide
[2] = In-vitro dissolution, 900 ml medium (0.1N HCl, pH 4.5 acetate buffer, pH 6.8 or pH 7.5 phosphate buffer), USP Apparatus 1, 75 rpm, 37° C.; type: physicochemical
Method: The dissolution profile of the above pharmaceutical composition was determined under the dissolution conditions described below in Tables 1A, 1B, and 1C.

CC(NC(C)(C)C)C(=O)c1cccc(Cl)c1 (stereo not shown) [Bupropion HBr, bupropion hydrobromide]
Solubility (37° C.) ([1]; 0.1N HCl): 190 | Solubility (37° C.) ([1]; pH 4.5): 180 | Solubility (37° C.) ([1]; pH 6.8): 200 | % Released ([2]; Example 1 tablet, 0.1N HCl, 1 hr): 12% | % Released ([2]; Example 1 tablet, 0.1N HCl, 2 hr): 29% | % Released ([2]; Example 1 tablet, 0.1N HCl, 3 hr): 45% | % Released ([2]; Example 1 tablet, 0.1N HCl, 4 hr): 59% | % Released ([2]; Example 1 tablet, 0.1N HCl, 5 hr): 73% | % Released ([2]; Example 1 tablet, 0.1N HCl, 6 hr): 84% | % Released ([2]; Example 1 tablet, 0.1N HCl, 7 hr): 93% | % Released ([2]; Example 1 tablet, 0.1N HCl, 8 hr): 100% | % Released ([2]; Example 1 tablet, 0.1N HCl, 9 hr): 103% | % Released ([2]; Example 1 tablet, 0.1N HCl, 10 hr): 104% | % Released ([2]; Example 1 tablet, 0.1N HCl, 11 hr): 104% | % Released ([2]; Example 1 tablet, 0.1N HCl, 12 hr): 104% | % Released ([2]; Example 1 tablet, 0.1N HCl, 13 hr): 103% | % Released ([2]; Example 1 tablet, 0.1N HCl, 14 hr): 103% | % Released ([2]; Example 1 tablet, pH 4.5 acetate buffer, 1 hr): 12% | % Released ([2]; Example 1 tablet, pH 4.5 acetate buffer, 2 hr): 28% | % Released ([2]; Example 1 tablet, pH 4.5 acetate buffer, 3 hr): 43% | % Released ([2]; Example 1 tablet, pH 4.5 acetate buffer, 4 hr): 57% | % Released ([2]; Example 1 tablet, pH 4.5 acetate buffer, 5 hr): 70% | % Released ([2]; Example 1 tablet, pH 4.5 acetate buffer, 6 hr): 81% | % Released ([2]; Example 1 tablet, pH 4.5 acetate buffer, 7 hr): 91% | % Released ([2]; Example 1 tablet, pH 4.5 acetate buffer, 8 hr): 98% | % Released ([2]; Example 1 tablet, pH 4.5 acetate buffer, 9 hr): 103% | % Released ([2]; Example 1 tablet, pH 4.5 acetate buffer, 10 hr): 105% | % Released ([2]; Example 1 tablet, pH 4.5 acetate buffer, 11 hr): 106% | % Released ([2]; Example 1 tablet, pH 4.5 acetate buffer, 12 hr): 106% | % Released ([2]; Example 1 tablet, pH 4.5 acetate buffer, 13 hr): 106% | % Released ([2]; Example 1 tablet, pH 4.5 acetate buffer, 14 hr): 106% | % Released ([2]; Example 1 tablet, pH 4.5 acetate buffer, 15 hr): 105% | % Released ([2]; Example 1 tablet, pH 4.5 acetate buffer, 16 hr): 105% | % Released ([2]; Example 1 tablet, pH 6.8 phosphate buffer, 1 hr): 12% | % Released ([2]; Example 1 tablet, pH 6.8 phosphate buffer, 2 hr): 27% | % Released ([2]; Example 1 tablet, pH 6.8 phosphate buffer, 3 hr): 42% | % Released ([2]; Example 1 tablet, pH 6.8 phosphate buffer, 4 hr): 56% | % Released ([2]; Example 1 tablet, pH 6.8 phosphate buffer, 5 hr): 69% | % Released ([2]; Example 1 tablet, pH 6.8 phosphate buffer, 6 hr): 80% | % Released ([2]; Example 1 tablet, pH 6.8 phosphate buffer, 7 hr): 88% | % Released ([2]; Example 1 tablet, pH 6.8 phosphate buffer, 8 hr): 95% | % Released ([2]; Example 1 tablet, pH 6.8 phosphate buffer, 9 hr): 98% | % Released ([2]; Example 1 tablet, pH 6.8 phosphate buffer, 10 hr): 100% | % Released ([2]; Example 1 tablet, pH 6.8 phosphate buffer, 11 hr): 100% | % Released ([2]; Example 1 tablet, pH 6.8 phosphate buffer, 12 hr): 100% | % Released ([2]; Example 1 tablet, pH 6.8 phosphate buffer, 13 hr): 101% | % Released ([2]; Example 1 tablet, pH 6.8 phosphate buffer, 14 hr): 100% | % Released ([2]; Example 1 tablet, pH 6.8 phosphate buffer, 15 hr): 99% | % Released ([2]; Example 1 tablet, pH 6.8 phosphate buffer, 16 hr): 99% | % Released ([2]; Example 2 tablet, 0.1N HCl, 1 hr): 12% | % Released ([2]; Example 2 tablet, 0.1N HCl, 2 hr): 29% | % Released ([2]; Example 2 tablet, 0.1N HCl, 4 hr): 61% | % Released ([2]; Example 2 tablet, 0.1N HCl, 8 hr): 100% | % Released ([2]; Example 2 tablet, 0.1N HCl, 12 hr): 103% | % Released ([2]; Example 2 tablet, pH 4.5 acetate buffer, 1 hr): 12% | % Released ([2]; Example 2 tablet, pH 4.5 acetate buffer, 2 hr): 28% | % Released ([2]; Example 2 tablet, pH 4.5 acetate buffer, 4 hr): 57% | % Released ([2]; Example 2 tablet, pH 4.5 acetate buffer, 8 hr): 97% | % Released ([2]; Example 2 tablet, pH 4.5 acetate buffer, 16 hr): 101% | % Released ([2]; Example 2 tablet, pH 6.8 phosphate buffer, 1 hr): 11% | % Released ([2]; Example 2 tablet, pH 6.8 phosphate buffer, 2 hr): 27% | % Released ([2]; Example 2 tablet, pH 6.8 phosphate buffer, 4 hr): 55% | % Released ([2]; Example 2 tablet, pH 6.8 phosphate buffer, 8 hr): 94% | % Released ([2]; Example 2 tablet, pH 6.8 phosphate buffer, 12 hr): 97% | % Released ([2]; Example 2 tablet, pH 6.8 phosphate buffer, 16 hr): 96% | % Released ([2]; Example 3 tablet, 0.1N HCl, 1 hr): 13% | % Released ([2]; Example 3 tablet, 0.1N HCl, 2 hr): 31% | % Released ([2]; Example 3 tablet, 0.1N HCl, 4 hr): 62% | % Released ([2]; Example 3 tablet, 0.1N HCl, 12 hr): 104% | % Released ([2]; Example 3 tablet, 0.1N HCl, 16 hr): 103% | % Released ([2]; Example 3 tablet, pH 4.5 acetate buffer, 1 hr): 12% | % Released ([2]; Example 3 tablet, pH 4.5 acetate buffer, 2 hr): 28% | % Released ([2]; Example 3 tablet, pH 4.5 acetate buffer, 4 hr): 58% | % Released ([2]; Example 3 tablet, pH 4.5 acetate buffer, 8 hr): 99% | % Released ([2]; Example 3 tablet, pH 4.5 acetate buffer, 12 hr): 103% | % Released ([2]; Example 3 tablet, pH 6.8 phosphate buffer, 1 hr): 11% | % Released ([2]; Example 3 tablet, pH 6.8 phosphate buffer, 2 hr): 27% | % Released ([2]; Example 3 tablet, pH 6.8 phosphate buffer, 4 hr): 57% | % Released ([2]; Example 3 tablet, pH 6.8 phosphate buffer, 8 hr): 98% | % Released ([2]; Example 3 tablet, pH 6.8 phosphate buffer, 12 hr): 100% | % Released ([2]; Example 3 tablet, pH 6.8 phosphate buffer, 16 hr): 99% | % Released ([2]; Example 4 tablet, 0.1N HCl, 1 hr): 11% | % Released ([2]; Example 4 tablet, 0.1N HCl, 2 hr): 27% | % Released ([2]; Example 4 tablet, 0.1N HCl, 4 hr): 56% | % Released ([2]; Example 4 tablet, 0.1N HCl, 8 hr): 97% | % Released ([2]; Example 4 tablet, 0.1N HCl, 12 hr): 105% | % Released ([2]; Example 4 tablet, 0.1N HCl, 16 hr): 103% | % Released ([2]; Example 5 tablet, 0.1N HCl, 1 hr): 9% | % Released ([2]; Example 5 tablet, 0.1N HCl, 2 hr): 20% | % Released ([2]; Example 5 tablet, 0.1N HCl, 4 hr): 43% | % Released ([2]; Example 5 tablet, 0.1N HCl, 8 hr): 82% | % Released ([2]; Example 5 tablet, 0.1N HCl, 12 hr): 98% | % Released ([2]; Example 5 tablet, 0.1N HCl, 16 hr): 99% | % Released ([2]; Example 6 tablet, 0.1N HCl, 1 hr): 13% | % Released ([2]; Example 6 tablet, 0.1N HCl, 2 hr): 30% | % Released ([2]; Example 6 tablet, 0.1N HCl, 4 hr): 61% | % Released ([2]; Example 6 tablet, 0.1N HCl, 8 hr): 98% | % Released ([2]; Example 6 tablet, 0.1N HCl, 12 hr): 100% | % Released ([2]; Example 6 tablet, 0.1N HCl, 16 hr): 100% | % Released ([2]; Example 7 tablet, 0.1N HCl, 1 hr): 2% | % Released ([2]; Example 7 tablet, 0.1N HCl, 8 hr): 36% | % Released ([2]; Example 7 tablet, 0.1N HCl, 12 hr): 57% | % Released ([2]; Example 7 tablet, 0.1N HCl, 16 hr): 74%
